{"source": "paper PMC9516332", "about": "(Frontiers in Oncology, 2022)", "origin": "cited, not measured here", "key": {"[1]": {"target": "panel of 255 wild-type kinases (Homo sapiens, UniProt P06213)", "conditions": "kinase INSR; 1 µmol/L single concentration; ref DOI: 10.1371/journal.pone.0092146; cited from earlier work"}, "[2]": {"target": "T1, panel of 255 wild-type kinases (Homo sapiens, UniProt P21709)", "T1 sequence (P21709 26-976)": "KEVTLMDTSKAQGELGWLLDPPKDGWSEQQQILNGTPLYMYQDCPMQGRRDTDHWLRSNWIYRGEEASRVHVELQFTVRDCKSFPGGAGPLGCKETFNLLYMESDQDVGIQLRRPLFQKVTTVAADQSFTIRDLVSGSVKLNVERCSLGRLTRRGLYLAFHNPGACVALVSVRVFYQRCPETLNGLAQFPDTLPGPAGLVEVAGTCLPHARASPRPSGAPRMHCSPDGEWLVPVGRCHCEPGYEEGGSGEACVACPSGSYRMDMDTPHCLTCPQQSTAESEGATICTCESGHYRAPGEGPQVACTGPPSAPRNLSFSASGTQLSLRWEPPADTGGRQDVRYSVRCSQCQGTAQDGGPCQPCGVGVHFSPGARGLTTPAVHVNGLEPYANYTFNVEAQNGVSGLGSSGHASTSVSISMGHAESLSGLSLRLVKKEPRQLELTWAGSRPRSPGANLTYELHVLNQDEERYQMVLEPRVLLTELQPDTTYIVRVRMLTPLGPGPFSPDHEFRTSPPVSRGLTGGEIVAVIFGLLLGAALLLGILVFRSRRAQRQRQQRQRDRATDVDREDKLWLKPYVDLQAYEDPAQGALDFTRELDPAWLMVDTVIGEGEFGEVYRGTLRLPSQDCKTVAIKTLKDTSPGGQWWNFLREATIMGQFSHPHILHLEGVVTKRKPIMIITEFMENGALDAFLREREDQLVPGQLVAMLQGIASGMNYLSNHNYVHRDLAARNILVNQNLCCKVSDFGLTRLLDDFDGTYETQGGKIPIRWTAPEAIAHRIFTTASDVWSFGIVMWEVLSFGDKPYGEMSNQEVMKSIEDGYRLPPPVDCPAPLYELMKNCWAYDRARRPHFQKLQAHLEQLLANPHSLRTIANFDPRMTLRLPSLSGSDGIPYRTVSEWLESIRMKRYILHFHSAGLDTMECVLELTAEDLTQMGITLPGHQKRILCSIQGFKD", "conditions": "kinase EPHA1; 1 µmol/L single concentration; ref DOI: 10.1371/journal.pone.0092146; cited from earlier work"}, "[3]": {"target": "panel of 255 wild-type kinases (Homo sapiens, UniProt P23458)", "conditions": "kinase JAK1; 1 µmol/L single concentration; ref DOI: 10.1371/journal.pone.0092146; cited from earlier work"}, "[4]": {"target": "panel of 255 wild-type kinases (Homo sapiens, UniProt P29376)", "sequence (P29376 17-864)": "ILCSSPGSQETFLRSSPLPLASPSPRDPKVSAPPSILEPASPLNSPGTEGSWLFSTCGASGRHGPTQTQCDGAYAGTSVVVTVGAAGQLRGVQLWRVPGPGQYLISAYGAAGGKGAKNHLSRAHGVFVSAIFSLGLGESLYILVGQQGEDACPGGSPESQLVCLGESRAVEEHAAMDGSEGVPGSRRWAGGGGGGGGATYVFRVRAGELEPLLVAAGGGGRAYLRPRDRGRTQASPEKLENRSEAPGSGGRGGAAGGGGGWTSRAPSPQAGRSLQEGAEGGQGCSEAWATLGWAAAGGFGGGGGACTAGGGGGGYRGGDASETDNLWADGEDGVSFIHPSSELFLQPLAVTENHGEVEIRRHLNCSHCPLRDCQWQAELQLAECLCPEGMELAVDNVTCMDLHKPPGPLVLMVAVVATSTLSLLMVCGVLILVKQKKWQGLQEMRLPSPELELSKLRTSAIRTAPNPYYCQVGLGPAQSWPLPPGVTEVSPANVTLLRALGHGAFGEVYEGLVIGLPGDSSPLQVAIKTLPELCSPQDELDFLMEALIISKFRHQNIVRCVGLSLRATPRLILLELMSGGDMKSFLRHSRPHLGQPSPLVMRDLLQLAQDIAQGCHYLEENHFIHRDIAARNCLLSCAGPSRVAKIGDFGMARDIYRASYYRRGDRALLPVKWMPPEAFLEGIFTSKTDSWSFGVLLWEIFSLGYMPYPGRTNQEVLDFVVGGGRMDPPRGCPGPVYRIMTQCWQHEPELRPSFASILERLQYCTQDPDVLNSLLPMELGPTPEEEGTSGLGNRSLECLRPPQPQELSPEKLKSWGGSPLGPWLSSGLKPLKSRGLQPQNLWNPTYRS", "conditions": "kinase LTK; 1 µmol/L single concentration; ref DOI: 10.1371/journal.pone.0092146; cited from earlier work"}, "[5]": {"target": "T2, panel of 255 wild-type kinases (Homo sapiens, UniProt Q02156)", "T2 sequence (Q02156 1-737)": "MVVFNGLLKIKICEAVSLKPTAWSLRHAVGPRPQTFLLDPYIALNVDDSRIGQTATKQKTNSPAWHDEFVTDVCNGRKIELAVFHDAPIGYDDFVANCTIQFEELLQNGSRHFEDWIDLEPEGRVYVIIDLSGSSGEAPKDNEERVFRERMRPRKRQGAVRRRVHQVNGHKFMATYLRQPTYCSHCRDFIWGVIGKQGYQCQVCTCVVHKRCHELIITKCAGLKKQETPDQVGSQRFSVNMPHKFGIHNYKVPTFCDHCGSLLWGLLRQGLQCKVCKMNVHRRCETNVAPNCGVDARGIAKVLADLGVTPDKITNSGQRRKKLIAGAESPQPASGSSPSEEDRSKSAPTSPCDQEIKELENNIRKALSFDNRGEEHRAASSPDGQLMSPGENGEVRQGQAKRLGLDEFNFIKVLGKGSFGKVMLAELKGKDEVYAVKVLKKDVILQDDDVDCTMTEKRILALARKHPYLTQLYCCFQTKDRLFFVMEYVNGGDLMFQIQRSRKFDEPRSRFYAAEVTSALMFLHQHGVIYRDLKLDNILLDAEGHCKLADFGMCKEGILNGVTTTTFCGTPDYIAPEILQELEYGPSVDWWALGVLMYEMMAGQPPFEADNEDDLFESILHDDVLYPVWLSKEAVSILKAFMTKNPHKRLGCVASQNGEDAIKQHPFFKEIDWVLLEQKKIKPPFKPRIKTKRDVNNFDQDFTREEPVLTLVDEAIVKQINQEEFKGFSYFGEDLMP", "conditions": "kinase PKCε; 1 µmol/L single concentration; ref DOI: 10.1371/journal.pone.0092146; cited from earlier work"}, "[6]": {"target": "panel of 255 wild-type kinases (Homo sapiens, UniProt Q05655)", "sequence (Q05655 whole entry)": "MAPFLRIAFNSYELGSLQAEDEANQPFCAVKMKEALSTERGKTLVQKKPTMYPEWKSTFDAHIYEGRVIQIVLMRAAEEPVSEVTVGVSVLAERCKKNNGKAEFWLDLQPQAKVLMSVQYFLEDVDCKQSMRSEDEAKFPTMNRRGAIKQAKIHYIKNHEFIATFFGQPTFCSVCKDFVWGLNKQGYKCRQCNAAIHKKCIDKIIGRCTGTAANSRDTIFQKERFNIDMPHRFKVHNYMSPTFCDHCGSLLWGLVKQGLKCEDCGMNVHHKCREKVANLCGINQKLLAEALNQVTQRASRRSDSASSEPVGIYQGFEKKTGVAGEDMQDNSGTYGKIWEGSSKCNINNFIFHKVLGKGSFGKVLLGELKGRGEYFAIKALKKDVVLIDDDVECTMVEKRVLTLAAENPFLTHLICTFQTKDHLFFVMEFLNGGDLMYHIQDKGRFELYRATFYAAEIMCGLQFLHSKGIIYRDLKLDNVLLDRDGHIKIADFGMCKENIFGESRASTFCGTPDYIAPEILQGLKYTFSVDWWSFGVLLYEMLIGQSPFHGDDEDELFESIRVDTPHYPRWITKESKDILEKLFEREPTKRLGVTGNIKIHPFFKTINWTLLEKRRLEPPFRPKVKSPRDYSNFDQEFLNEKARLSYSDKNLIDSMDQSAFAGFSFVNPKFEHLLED", "conditions": "kinase PKCδ; 1 µmol/L single concentration; ref DOI: 10.1371/journal.pone.0092146; cited from earlier work"}, "[7]": {"target": "panel of 255 wild-type kinases (Homo sapiens, UniProt Q15303)", "sequence (Q15303 26-1308)": "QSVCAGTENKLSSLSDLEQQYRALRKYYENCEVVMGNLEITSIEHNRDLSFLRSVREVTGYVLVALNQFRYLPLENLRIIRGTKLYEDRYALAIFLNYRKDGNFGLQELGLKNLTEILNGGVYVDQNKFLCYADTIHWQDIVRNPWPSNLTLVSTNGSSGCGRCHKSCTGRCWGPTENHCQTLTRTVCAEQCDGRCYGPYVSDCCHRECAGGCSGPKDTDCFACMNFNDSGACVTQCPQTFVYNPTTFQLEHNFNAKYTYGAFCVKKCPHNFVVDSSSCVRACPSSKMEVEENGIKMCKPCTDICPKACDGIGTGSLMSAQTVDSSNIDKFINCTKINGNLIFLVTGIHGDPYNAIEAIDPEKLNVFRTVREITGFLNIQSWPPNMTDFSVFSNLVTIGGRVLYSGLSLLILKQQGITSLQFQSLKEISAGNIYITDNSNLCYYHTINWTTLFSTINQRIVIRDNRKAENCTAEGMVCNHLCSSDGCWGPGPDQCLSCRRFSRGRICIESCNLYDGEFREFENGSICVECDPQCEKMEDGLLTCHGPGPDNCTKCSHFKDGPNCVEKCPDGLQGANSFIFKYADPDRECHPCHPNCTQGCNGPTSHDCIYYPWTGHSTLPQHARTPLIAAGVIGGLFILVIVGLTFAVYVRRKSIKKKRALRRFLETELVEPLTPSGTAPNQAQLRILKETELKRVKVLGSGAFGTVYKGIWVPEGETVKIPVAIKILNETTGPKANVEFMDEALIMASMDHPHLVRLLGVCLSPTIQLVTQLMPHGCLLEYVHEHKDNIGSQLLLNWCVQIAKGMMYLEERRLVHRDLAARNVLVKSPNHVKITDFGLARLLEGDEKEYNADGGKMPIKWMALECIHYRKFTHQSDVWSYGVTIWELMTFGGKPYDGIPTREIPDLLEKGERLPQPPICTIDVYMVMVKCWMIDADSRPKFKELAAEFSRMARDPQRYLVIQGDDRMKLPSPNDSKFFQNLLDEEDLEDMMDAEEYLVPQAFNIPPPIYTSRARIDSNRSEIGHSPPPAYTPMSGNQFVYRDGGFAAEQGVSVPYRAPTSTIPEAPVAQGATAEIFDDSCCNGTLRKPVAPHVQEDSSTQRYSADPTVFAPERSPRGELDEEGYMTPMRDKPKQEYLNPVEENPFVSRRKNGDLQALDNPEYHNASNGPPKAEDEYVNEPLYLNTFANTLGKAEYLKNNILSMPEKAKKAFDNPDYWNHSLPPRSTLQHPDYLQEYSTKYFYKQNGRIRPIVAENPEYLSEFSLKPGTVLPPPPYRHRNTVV", "conditions": "kinase HER4; 1 µmol/L single concentration; ref DOI: 10.1371/journal.pone.0092146; cited from earlier work"}, "[8]": {"target": "panel of 255 wild-type kinases (Homo sapiens, UniProt Q86Z02)", "sequence (Q86Z02 whole entry)": "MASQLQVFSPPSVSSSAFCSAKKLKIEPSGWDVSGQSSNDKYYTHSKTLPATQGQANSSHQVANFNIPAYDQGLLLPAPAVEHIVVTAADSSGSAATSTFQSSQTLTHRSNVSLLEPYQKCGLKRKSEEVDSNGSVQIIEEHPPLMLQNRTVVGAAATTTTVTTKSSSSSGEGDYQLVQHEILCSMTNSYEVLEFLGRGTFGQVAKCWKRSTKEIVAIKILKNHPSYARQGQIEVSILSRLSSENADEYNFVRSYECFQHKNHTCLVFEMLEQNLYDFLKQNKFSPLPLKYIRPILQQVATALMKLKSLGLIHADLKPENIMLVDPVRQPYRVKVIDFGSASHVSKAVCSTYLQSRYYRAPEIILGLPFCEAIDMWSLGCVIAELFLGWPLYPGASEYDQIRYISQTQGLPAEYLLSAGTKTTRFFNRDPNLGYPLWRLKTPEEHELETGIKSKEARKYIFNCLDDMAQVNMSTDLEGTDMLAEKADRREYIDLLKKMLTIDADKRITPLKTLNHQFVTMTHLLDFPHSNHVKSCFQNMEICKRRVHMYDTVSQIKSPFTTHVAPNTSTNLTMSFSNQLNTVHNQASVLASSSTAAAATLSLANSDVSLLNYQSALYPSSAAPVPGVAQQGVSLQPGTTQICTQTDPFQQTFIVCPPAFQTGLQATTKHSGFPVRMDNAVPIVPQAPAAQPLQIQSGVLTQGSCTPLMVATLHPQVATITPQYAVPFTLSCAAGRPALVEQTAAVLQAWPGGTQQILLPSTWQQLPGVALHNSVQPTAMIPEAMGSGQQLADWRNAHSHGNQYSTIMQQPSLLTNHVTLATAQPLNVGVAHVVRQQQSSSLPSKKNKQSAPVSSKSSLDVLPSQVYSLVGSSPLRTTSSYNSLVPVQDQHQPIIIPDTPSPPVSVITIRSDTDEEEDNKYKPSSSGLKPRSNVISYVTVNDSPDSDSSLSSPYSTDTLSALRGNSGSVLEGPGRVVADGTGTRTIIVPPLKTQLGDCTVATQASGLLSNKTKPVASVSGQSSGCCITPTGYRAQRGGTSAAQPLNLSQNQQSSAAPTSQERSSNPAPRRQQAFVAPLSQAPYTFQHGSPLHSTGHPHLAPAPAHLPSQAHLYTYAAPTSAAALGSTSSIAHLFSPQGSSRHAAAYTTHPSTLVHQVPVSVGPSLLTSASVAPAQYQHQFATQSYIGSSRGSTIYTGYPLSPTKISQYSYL", "conditions": "kinase HIPK1; 1 µmol/L single concentration; ref DOI: 10.1371/journal.pone.0092146; cited from earlier work"}, "[9]": {"target": "panel of 255 wild-type kinases (Homo sapiens, UniProt Q9NYY3)", "sequence (Q9NYY3 whole entry)": "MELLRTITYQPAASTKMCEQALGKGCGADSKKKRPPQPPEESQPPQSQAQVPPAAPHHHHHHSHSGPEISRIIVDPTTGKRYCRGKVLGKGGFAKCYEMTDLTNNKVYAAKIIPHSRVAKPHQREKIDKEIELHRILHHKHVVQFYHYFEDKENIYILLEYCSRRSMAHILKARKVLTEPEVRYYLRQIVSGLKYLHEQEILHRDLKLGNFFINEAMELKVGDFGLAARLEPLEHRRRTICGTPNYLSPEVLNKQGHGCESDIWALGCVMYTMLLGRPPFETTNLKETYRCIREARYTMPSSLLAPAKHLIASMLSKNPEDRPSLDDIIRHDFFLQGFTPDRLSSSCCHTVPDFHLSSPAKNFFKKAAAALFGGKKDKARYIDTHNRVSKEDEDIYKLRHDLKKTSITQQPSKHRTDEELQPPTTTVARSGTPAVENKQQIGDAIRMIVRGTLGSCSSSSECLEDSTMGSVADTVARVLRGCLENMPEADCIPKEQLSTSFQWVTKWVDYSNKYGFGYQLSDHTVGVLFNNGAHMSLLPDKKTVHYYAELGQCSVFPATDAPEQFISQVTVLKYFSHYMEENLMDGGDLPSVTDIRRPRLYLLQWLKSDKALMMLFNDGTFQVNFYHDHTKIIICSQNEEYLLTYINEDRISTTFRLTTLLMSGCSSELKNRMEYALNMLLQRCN", "conditions": "kinase PLK2; 1 µmol/L single concentration; ref DOI: 10.1371/journal.pone.0092146; cited from earlier work"}}, "data": [{"compound": "C[C@@H](Oc1cc(-c2cnn(C3CCNCC3)c2)cnc1N)c1c(Cl)ccc(F)c1Cl", "note": "[crizotinib]", "values": [{"measurement": "%-inhibition at 1 µmol/L, INSR", "setting": "[1]", "result": 84, "unit": "%"}, {"measurement": "%-inhibition at 1 µmol/L, EPHA1", "setting": "[2]", "result": 97, "unit": "%"}, {"measurement": "%-inhibition at 1 µmol/L, JAK1", "setting": "[3]", "result": 47, "unit": "%"}, {"measurement": "%-inhibition at 1 µmol/L, LTK", "setting": "[4]", "result": 102, "unit": "%"}, {"measurement": "%-inhibition at 1 µmol/L, PKCε", "setting": "[5]", "result": -7, "unit": "%"}, {"measurement": "%-inhibition at 1 µmol/L, PKCδ", "setting": "[6]", "result": -1.14, "unit": "%"}, {"measurement": "%-inhibition at 1 µmol/L, HER4", "setting": "[7]", "result": -18, "unit": "%"}, {"measurement": "%-inhibition at 1 µmol/L, HIPK1", "setting": "[8]", "result": -7, "unit": "%"}, {"measurement": "%-inhibition at 1 µmol/L, PLK2", "setting": "[9]", "result": 1.1, "unit": "%"}]}]}
